# From patent US9796671B2, “Aurora kinase inhibitors” (REGENTS OF THE UNIVERSITY OF MINNESOTA, priority 2012, dated 2017)
# Assays:
# Experiment in all cases: Kinase profile assay (Millipore)
# Format in all cases: biochemical
# RSK2 = target: T1, RSK2 (Homo sapiens, UniProt P51812); conditions: read-out: kinase activity compared with the control
# T1 construct: purchased Millipore
# Description: (§1) A kinase profile assay was performed by Millipore, to examine other potential targets of Compound 1. Only Akt2 activity was suppressed more than 50% after 5 μM compound 1 treatment, compared with the control (Table 2). In addition, the kinase activity of Aurora A was decreased less than 25% at 5 μM Compound 1.
# PKB alpha (Akt1) = target: T2, PKB alpha (Akt1) (Homo sapiens, UniProt P31749); conditions: read-out: kinase activity compared with the control
# T2 construct: purchased Millipore
# Description: as §1
# CHK2 = target: T3, CHK2 (Homo sapiens, UniProt O96017); conditions: read-out: kinase activity compared with the control
# T3 construct: purchased Millipore
# Description: as §1
# GSK3 beta = target: T4, GSK3 beta (Homo sapiens, UniProt P49841); conditions: read-out: kinase activity compared with the control
# T4 construct: purchased Millipore
# Description: as §1
# mTOR = target: T5, mTOR (Homo sapiens, UniProt P42345); conditions: read-out: kinase activity compared with the control
# T5 construct: purchased Millipore
# Description: as §1
# IKK beta = target: T6, IKK beta (Homo sapiens, UniProt O14920); conditions: read-out: kinase activity compared with the control
# T6 construct: purchased Millipore
# Description: as §1
# mTOR/FKBP12 = target: T7, mTOR/FKBP12 (Homo sapiens, UniProt P42345); conditions: read-out: kinase activity compared with the control
# T7 construct: purchased Millipore
# Description: as §1
# PI3-K gamma = PI3-K gamma (Homo sapiens, UniProt P48736); conditions: read-out: kinase activity compared with the control
# Description: as §1
# Pim-1 = target: T8, Pim-1 (Homo sapiens, UniProt P11309); conditions: read-out: kinase activity compared with the control
# T8 construct: purchased Millipore
# Description: as §1
# c-Kit = target: T9, c-Kit (Homo sapiens, UniProt P10721); conditions: read-out: kinase activity compared with the control
# T9 construct: purchased Millipore
# Description: as §1
# KDR = target: T10, KDR (Homo sapiens, UniProt P35968); conditions: read-out: kinase activity compared with the control
# T10 construct: purchased Millipore
# Description: as §1
# Abl = target: T11, Abl (Homo sapiens, UniProt P00519); conditions: read-out: kinase activity compared with the control
# T11 construct: purchased Millipore
# Description: as §1
# AMPK-alpha1 = target: T12, AMPK-alpha1 (Homo sapiens, UniProt Q13131); conditions: read-out: kinase activity compared with the control
# T12 construct: purchased Millipore
# Description: as §1
# EGFR (T790M, L858R) = target: T13, EGFR (T790M, L858R) (Homo sapiens, UniProt P00533, L858R/T790M); conditions: 5 μM
# T13 construct: purchased Millipore
# Description: as §1
# PI3-K delta = PI3-K delta (Homo sapiens, UniProt O00329); conditions: read-out: kinase activity compared with the control
# Description: as §1
# JNK2 alpha2 = target: T14, JNK2 alpha2 (Homo sapiens, UniProt P45984); conditions: 5 μM
# T14 construct: purchased Millipore
# Description: as §1
# GSK3 alpha = target: T15, GSK3 alpha (Homo sapiens, UniProt P49840); conditions: read-out: kinase activity compared with the control
# T15 construct: purchased Millipore
# Description: as §1
# EGFR = target: T16, EGFR (Homo sapiens, UniProt P00533); conditions: 5 μM
# T16 construct: purchased Millipore
# Description: as §1
# PI3-K alpha = PI3-K alpha (Homo sapiens, UniProt P42336); conditions: read-out: kinase activity compared with the control
# Description: as §1
# Flt3 = target: T17, Flt3 (Homo sapiens, UniProt P36888); conditions: read-out: kinase activity compared with the control
# T17 construct: purchased Millipore
# Description: as §1
# FGFR1 = target: T18, FGFR1 (Homo sapiens, UniProt P11362); conditions: read-out: kinase activity compared with the control
# T18 construct: purchased Millipore
# Description: as §1
# MSK2 = target: T19, MSK2 (Homo sapiens, UniProt O75676); conditions: read-out: kinase activity compared with the control
# T19 construct: purchased Millipore
# Description: as §1
# MAPK1 = target: T20, MAPK1 (Homo sapiens, UniProt P27361); conditions: read-out: kinase activity compared with the control
# T20 construct: purchased Millipore
# Description: as §1
# PDK1 = target: T21, PDK1 (Homo sapiens, UniProt O15530); conditions: read-out: kinase activity compared with the control
# T21 construct: purchased Millipore
# Description: as §1
# CDK2/cyclinA = target: T22, CDK2/cyclinA (Homo sapiens, UniProt P24941); conditions: 5 μM
# T22 construct: purchased Millipore
# Description: as §1
# IKK alpha = target: T23, IKK alpha (Homo sapiens, UniProt O15111); conditions: read-out: kinase activity compared with the control
# T23 construct: purchased Millipore
# Description: as §1
# PI3-K beta = PI3-K beta (Homo sapiens, UniProt P42338); conditions: read-out: kinase activity compared with the control
# Description: as §1
# CDK1/cyclinB = target: T24, CDK1/cyclinB (Homo sapiens, UniProt P06493); conditions: read-out: kinase activity compared with the control
# T24 construct: purchased Millipore
# Description: as §1
# JNK1 alpha1 = target: T25, JNK1 alpha1 (Homo sapiens, UniProt P45983); conditions: 5 μM
# T25 construct: purchased Millipore
# Description: as §1
# p70S6K = target: T26, p70S6K (Homo sapiens, UniProt P23443); conditions: read-out: kinase activity compared with the control
# T26 construct: purchased Millipore
# Description: as §1
# FAK = target: T27, FAK (Homo sapiens, UniProt Q05397); conditions: read-out: kinase activity compared with the control
# T27 construct: purchased Millipore
# Description: as §1
# MAPK2 = target: T28, MAPK2 (Homo sapiens, UniProt P28482); conditions: read-out: kinase activity compared with the control
# T28 construct: purchased Millipore
# Description: as §1
# MSK1 = target: T29, MSK1 (Homo sapiens, UniProt O75582); conditions: read-out: kinase activity compared with the control
# T29 construct: purchased Millipore
# Description: as §1
# c-RAF = target: T30, c-RAF (Homo sapiens, UniProt P04049); conditions: read-out: kinase activity compared with the control
# T30 construct: purchased Millipore
# Description: as §1
# CDK3/cyclinE = target: T31, CDK3/cyclinE (Homo sapiens, UniProt Q00526); conditions: 5 μM
# T31 construct: purchased Millipore
# Description: as §1
# T25 sequence (P45983 1-384 isoform P45983-2, species assumed): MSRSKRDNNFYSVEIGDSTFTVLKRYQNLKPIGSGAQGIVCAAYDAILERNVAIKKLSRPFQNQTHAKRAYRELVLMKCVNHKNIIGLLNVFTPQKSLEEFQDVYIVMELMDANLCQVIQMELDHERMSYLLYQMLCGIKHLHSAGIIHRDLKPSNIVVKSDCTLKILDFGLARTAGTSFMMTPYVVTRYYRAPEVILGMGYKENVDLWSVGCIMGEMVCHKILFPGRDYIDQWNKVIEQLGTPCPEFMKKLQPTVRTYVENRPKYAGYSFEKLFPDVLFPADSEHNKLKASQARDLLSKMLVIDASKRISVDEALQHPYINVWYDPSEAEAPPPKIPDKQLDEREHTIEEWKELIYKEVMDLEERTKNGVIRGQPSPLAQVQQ
# T17 sequence (P36888 27-993, species assumed): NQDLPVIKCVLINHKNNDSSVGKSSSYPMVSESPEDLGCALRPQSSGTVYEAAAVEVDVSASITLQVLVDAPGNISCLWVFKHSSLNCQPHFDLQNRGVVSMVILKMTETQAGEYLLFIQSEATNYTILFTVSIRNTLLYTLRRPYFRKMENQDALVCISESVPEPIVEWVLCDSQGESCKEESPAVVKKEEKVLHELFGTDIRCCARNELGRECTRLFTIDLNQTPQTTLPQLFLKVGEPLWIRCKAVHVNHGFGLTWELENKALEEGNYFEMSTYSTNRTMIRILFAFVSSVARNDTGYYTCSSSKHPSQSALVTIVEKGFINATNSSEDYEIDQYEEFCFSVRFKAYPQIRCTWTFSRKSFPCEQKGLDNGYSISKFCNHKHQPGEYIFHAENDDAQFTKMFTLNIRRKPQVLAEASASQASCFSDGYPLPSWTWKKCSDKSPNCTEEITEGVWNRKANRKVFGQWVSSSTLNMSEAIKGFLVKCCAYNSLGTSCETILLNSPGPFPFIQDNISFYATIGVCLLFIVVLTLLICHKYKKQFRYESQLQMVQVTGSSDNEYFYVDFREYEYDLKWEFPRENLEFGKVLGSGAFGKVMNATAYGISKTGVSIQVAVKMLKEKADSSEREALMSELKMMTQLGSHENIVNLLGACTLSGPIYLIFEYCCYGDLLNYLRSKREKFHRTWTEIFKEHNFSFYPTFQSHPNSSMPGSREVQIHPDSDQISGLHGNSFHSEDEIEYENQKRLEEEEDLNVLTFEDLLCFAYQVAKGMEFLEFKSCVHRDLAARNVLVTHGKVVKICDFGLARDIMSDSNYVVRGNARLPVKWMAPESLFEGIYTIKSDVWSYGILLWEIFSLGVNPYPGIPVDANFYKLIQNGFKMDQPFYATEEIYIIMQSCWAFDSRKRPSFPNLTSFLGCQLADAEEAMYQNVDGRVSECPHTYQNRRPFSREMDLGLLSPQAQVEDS
# T30 sequence (P04049 whole entry, species assumed): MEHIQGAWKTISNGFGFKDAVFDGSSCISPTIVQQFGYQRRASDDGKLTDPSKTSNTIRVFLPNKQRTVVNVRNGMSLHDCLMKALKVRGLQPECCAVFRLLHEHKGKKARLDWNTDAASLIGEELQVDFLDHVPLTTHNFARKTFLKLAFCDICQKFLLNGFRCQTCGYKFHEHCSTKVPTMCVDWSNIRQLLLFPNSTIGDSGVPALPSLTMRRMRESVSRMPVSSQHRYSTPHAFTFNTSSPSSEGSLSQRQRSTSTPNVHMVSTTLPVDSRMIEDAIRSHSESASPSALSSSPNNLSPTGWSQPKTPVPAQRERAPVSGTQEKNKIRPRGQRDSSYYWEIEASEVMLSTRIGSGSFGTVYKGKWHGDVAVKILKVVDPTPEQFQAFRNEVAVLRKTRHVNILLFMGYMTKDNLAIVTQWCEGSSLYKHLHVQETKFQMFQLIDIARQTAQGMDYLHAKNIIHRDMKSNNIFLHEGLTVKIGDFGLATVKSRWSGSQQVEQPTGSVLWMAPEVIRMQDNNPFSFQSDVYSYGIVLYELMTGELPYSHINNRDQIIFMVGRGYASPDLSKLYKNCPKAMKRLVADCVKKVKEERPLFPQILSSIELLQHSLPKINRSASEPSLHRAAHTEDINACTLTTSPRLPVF
# T18 sequence (P11362 22-822, species assumed): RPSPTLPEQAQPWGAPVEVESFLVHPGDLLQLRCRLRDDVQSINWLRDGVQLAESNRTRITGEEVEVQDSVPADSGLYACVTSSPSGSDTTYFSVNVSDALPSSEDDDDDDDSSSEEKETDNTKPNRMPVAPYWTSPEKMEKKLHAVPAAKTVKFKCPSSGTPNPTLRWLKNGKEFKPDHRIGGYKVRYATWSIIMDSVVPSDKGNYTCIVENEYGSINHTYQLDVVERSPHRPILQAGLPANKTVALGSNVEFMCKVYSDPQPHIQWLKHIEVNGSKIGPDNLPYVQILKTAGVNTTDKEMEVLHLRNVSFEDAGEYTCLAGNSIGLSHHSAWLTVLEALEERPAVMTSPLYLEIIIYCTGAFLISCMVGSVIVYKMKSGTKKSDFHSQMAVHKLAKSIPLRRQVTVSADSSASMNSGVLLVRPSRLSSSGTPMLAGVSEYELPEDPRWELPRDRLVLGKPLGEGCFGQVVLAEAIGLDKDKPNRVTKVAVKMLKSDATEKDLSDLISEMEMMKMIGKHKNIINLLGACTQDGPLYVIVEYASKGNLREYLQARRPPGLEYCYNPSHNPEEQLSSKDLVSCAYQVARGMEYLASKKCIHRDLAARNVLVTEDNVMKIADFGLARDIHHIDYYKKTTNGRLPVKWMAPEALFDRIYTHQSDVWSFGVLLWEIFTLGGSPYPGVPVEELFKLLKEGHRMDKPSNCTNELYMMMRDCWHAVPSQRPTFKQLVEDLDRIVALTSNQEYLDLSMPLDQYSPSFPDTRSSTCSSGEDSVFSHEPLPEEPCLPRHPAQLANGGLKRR
# T16 sequence (P00533 25-1210, species assumed): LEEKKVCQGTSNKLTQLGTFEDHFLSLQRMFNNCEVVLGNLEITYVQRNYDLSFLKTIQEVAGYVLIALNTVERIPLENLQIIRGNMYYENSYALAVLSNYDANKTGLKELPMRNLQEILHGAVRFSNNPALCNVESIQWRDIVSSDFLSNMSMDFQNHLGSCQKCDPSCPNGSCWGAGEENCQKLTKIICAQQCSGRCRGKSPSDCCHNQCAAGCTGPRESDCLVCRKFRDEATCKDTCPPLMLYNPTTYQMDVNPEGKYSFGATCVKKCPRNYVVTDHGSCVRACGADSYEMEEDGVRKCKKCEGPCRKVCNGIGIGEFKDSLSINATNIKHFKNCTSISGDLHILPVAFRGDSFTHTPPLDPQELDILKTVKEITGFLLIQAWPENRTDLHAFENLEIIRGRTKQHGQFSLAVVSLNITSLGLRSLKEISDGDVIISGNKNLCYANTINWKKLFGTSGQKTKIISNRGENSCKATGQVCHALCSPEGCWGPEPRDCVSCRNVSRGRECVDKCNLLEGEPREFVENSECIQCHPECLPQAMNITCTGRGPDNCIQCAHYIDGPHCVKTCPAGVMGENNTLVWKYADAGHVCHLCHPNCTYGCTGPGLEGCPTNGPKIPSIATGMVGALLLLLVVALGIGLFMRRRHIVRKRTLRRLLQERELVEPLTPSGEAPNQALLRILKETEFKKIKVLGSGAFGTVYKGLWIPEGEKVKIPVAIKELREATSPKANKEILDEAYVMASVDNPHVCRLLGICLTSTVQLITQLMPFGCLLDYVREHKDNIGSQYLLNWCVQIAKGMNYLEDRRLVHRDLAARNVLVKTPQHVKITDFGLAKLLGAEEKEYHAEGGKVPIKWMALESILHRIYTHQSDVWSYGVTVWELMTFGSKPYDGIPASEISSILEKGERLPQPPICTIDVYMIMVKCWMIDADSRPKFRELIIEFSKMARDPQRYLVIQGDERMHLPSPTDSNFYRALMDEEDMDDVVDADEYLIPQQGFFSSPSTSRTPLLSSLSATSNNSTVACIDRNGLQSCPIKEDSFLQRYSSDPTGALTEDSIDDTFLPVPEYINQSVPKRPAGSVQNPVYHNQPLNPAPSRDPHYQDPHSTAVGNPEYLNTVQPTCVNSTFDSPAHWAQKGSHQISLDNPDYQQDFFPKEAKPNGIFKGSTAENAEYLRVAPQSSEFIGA
# T27 sequence (Q05397 whole entry, species assumed): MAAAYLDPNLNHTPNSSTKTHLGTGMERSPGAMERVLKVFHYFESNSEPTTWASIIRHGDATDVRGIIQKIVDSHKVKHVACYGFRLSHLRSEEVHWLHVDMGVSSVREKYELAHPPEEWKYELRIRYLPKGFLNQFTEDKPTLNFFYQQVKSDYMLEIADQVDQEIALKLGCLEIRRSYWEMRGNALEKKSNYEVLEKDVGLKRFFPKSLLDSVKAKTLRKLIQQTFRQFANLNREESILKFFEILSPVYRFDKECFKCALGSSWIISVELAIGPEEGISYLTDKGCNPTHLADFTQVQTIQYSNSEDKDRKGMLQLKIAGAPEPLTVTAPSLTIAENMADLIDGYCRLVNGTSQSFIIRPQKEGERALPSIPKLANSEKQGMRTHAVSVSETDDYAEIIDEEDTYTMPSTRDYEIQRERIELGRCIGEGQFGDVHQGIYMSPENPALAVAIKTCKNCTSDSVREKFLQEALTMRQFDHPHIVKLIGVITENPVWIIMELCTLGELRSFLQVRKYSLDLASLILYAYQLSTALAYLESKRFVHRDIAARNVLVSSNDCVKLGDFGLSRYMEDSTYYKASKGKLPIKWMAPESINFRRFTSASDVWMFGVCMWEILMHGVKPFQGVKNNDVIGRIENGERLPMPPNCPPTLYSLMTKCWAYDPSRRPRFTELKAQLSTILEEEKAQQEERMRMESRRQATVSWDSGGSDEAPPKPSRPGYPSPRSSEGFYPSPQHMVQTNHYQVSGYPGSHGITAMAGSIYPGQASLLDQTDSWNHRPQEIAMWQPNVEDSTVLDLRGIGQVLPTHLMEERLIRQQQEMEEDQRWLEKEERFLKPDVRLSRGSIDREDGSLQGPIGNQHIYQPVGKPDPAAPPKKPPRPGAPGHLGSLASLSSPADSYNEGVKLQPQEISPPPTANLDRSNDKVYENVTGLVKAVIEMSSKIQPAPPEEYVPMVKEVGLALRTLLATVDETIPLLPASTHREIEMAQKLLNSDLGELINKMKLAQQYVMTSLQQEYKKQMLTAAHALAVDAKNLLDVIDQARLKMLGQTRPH
structure (smiles),measurement,setting,value
O=C(/C=C/c1ccc2c(c1)OCO2)/C=C1/C(=O)Nc2ccccc21 [Compound 1],remaining activity at 5 µM,RSK2,94%
same,remaining activity at 5 µM,PKB alpha (Akt1),68%
same,remaining activity at 5 µM,CHK2,75%
same,remaining activity at 5 µM,GSK3 beta,94%
same,remaining activity at 5 µM,mTOR,136%
same,remaining activity at 5 µM,IKK beta,68%
same,remaining activity at 5 µM,mTOR/FKBP12,86%
same,remaining activity at 5 µM,PI3-K gamma,100%
same,remaining activity at 5 µM,Pim-1,96%
same,remaining activity at 5 µM,c-Kit,123%
same,remaining activity at 5 µM,KDR,93%
same,remaining activity at 5 µM,Abl,109%
same,remaining activity at 5 µM,AMPK-alpha1,96%
same,kinase activity compared with the control,"EGFR (T790M, L858R)",101
same,remaining activity at 5 µM,PI3-K delta,105%
same,kinase activity compared with the control,JNK2 alpha2,89
same,remaining activity at 5 µM,GSK3 alpha,85%
same,kinase activity compared with the control,EGFR,106
same,remaining activity at 5 µM,PI3-K alpha,102%
same,remaining activity at 5 µM,Flt3,92%
same,remaining activity at 5 µM,FGFR1,86%
same,remaining activity at 5 µM,MSK2,79%
same,remaining activity at 5 µM,MAPK1,100%
same,remaining activity at 5 µM,PDK1,96%
same,kinase activity compared with the control,CDK2/cyclinA,98
same,remaining activity at 5 µM,IKK alpha,83%
same,remaining activity at 5 µM,PI3-K beta,103%
same,remaining activity at 5 µM,CDK1/cyclinB,86%
same,kinase activity compared with the control,JNK1 alpha1,104
same,remaining activity at 5 µM,p70S6K,72%
same,remaining activity at 5 µM,FAK,104%
same,remaining activity at 5 µM,MAPK2,102%
same,remaining activity at 5 µM,MSK1,98%
same,remaining activity at 5 µM,c-RAF,87%
same,kinase activity compared with the control,CDK3/cyclinE,99
